Measurements as given in US10786571B2, “Hydrophilic gel for topical delivery of 5-aminolevulinic acid” (Zimmer Biotech GmbH, priority 2015, dated 2020).

Assays:
[1] = aqueous solution; cited from earlier work
[2] = Stability of 5-ALA / product; assay type: physicochemical; settings: different storage conditions
[3] = cited from earlier work

Molecule	pH of best stability of aqueous solutions [1]	long-term stability in double chamber tube [2]	sensitivity to daylight after treatment [3] [days]
NCC(=O)CCC(=O)O [5-ALA, 5-aminolevulinic acid]	< 6	long-term stable at different storage conditions without degradation	1 to 2
Porfimer Sodium [Photofrin]			30 to 60
